Results as given in patent US20220370454A1, “METHODS FOR TREATING CENTRAL NERVOUS SYSTEM DISORDERS WITH MUSCARINIC RECEPTOR ACTIVATION AND ANTIPSYCHOTICS” (Karuna Therapeutics, Inc., priority 2021, published 2022).
Blank lines part the entries; values can stand above or below the compound they belong to.

Columns and labels:
Adult male C57BL/6J mice = assay: Conditioned avoidance response (CAR) assay, Example 1; format: in vivo; details: for Effect on conditioned avoidance responding (dose-response, FIG. 1): each compound alone, compiled independent studies; for Avoidance responding versus vehicle-vehicle control, drug alone: subthreshold doses alone (data not shown); for Blockade of xanomeline's effects in CAR by muscarinic antagonist: maximally active dose of xanomeline, FIG. 11, N=14
Source text: In the CAR assay, mice were first trained to avoid a foot shock (i.e., crossing from one side of a shuttle box to another within 10 secs) to a performance criterion of ≥85% avoidance responses. A repeated-measures, counterbalanced design was used. Two experiments evaluated the effects of blocking central (with scopolamine) vs. peripheral (with N-methylscopolamine) muscarinic receptors. […] “Subthreshold” of “sub-efficacious” refers to doses that are lower than the therapeutically effective amount for monotherapy but which could be effective in synergy with the antipsychotics tested.
Referring to FIG. 1, the compiled data over independent studies with each compound were analyzed separately via one-way repeated-measures ANOVA. A Dunnett post-hoc test was performed and that dose group significance was only assessed against Vehicle.
Post hoc analysis vs. xanomeline alone (*) and vs. comparator dose alone (#).

male C57BL/6J mice = assay: Conditioned avoidance response (CAR) assay, Example 2 (enhanced aripiprazole formulation, two sequential injections); details: for Average avoidance response percentages, A alone: Example 2
Method: Also, in Example 2, compounds were delivered as two sequential subcutaneous injections rather than one.
In Example 2, a 5% vehicle solution was prepared from 1.0 mL Tween-80 dissolved in 19.0 mL saline. […] The average pH was 3.8 and compound was dosed at a 10 mL/kg bodyweight volume. Drug solutions were prepared fresh on each dosing day before testing. All solutions were mixed or vortexed thoroughly before injections.
Subjects (N=25) were male C57BL/6J, purchased from Jackson Labs, and successfully trained for CAR. Mice were first tested in an aripiprazole dose response study comprised of VEH, 0.3, 1, 3, and 10 mg/kg (data not shown). Dose order was randomly assigned for each mouse. Mice were returned to their home cages for 30 minutes following injection to allow the drug to take effect before testing began.
To match the formulation procedure from Example 1 while maintaining an appropriate volume, a relatively high concentration aripiprazole stock was first made and then diluted to the target concentrations for dosing. A 5% Tween-80 solution was prepared from 2.0 mL Tween-80 dissolved in 38.0 mL of saline. A 3.0 mg/kg aripiprazole solution as a stock was prepared from 3.0 mg aripiprazole dissolved in 5.0 mL 5% Tween-80, giving a concentration of 0.6 mg/mL. At a dosing volume of 5 mL/kg, equaling 3.0 mg/kg. […] The average pH was 6.2. For 0.3 mg/kg aripiprazole, 0.6 mL of the 3 mg/kg aripiprazole stock was diluted in 5.4 mL of 5% Tween-80. For 0.1 mg/kg aripiprazole, 0.2 mL of the 3 mg/kg aripiprazole stock was dissolved in 5.8 mL of 5% Tween-80.
The 1.0 mg/kg xanomeline solution was prepared from 3.05 mg xanomeline dissolved in 10.0 mL of sterile water, giving a concentration of 0.2 mg/mL. At a dosing volume of 10 mL/kg, this equals 1.0 mg/kg. (The drug mass adjustment factor between xanomeline free base and xanomeline tartrate is 1.5262.) The average pH was 4.4.
Dose order was randomly assigned for each mouse. Injection 1 and Injection 2 occurred in sequence, with no gap time. Mice were returned to their home cages for 30 minutes following injection to allow the drugs to take effect before testing began. Mice were injected with vehicle (saline at 10 mL/kg SC and Tween-80 at 5 mL/kg IP) the day before dosing days. Mice were only dosed if their average percent avoidance values for the previous two non-dose days was >85%.
The study then evaluated the effect of blocking muscarinic receptors (via scopolamine) on the activity and efficacy of aripiprazole in the Conditioned Avoidance Response (CAR) assay. The aripiprazole solution was prepared as before. To prepare the 0.3 mg/kg scopolamine solution, 3.397 mg scopolamine was dissolved in 40 mL of saline. The actual drug weight of SCOP in this solution is 2.4 mg (adjusted by a factor 1.41499 for the salt content), giving a concentration of 0.06 mg/mL. At a dosing volume of 5 mL/kg, this equals 0.3 mg/kg. The average pH of this solution was 7.3.

[1] = test system: MK-801-induced locomotor activity in C57BL/6J mice; assay: MK-801-induced locomotor activity (LMA) assay; format: in vivo
Source text: In the CAR assay, mice were first trained to avoid a foot shock (i.e., crossing from one side of a shuttle box to another within 10 secs) to a performance criterion of ≥85% avoidance responses. A repeated-measures, counterbalanced design was used. Two experiments evaluated the effects of blocking central (with scopolamine) vs. peripheral (with N-methylscopolamine) muscarinic receptors. Additional experiments evaluated augmentation and synergy by combining dosing subthreshold doses of xanomeline plus risperidone or aripiprazole. “Subthreshold” of “sub-efficacious” refers to doses that are lower than the therapeutically effective amount for monotherapy but which could be effective in synergy with the antipsychotics tested.
In the LMA assay, varying doses of xanomeline and risperidone were co-formulated. […] After the experiment, plasma and brain tissue were collected to determine drug exposure.
Data are mean (±SEM) total distance traveled.

[2] = Brain and plasma drug exposure collected after the LMA study; format: in vivo, mice
Source text: After the experiment, plasma and brain tissue were collected to determine drug exposure.

Escape failures (male C57BL/6J mice; aripiprazole dose response study, 0.3-10 mg/kg): not evident at any doses
Compound: O=C1CCc2ccc(OCCCCN3CCN(c4cccc(Cl)c4Cl)CC3)cc2N1 [Aripiprazole, aripiprazole]
Average avoidance response percentages, A alone (Adult male C57BL/6J mice; aripiprazole 1 mg/kg alone): 2%
Average avoidance response percentages, A alone (Adult male C57BL/6J mice; aripiprazole 3 mg/kg alone): 6%
Effect on conditioned avoidance responding (dose-response, FIG. 1) (Adult male C57BL/6J mice): dose-dependently reduced conditioned avoidance responding
Avoidance responding versus vehicle-vehicle control, drug alone (Adult male C57BL/6J mice): did not significantly differ from vehicle-vehicle control conditions
Average avoidance response percentages, A alone (male C57BL/6J mice; aripiprazole 0.1 mg/kg IP alone): 14%
Average avoidance response percentages, A alone (male C57BL/6J mice; aripiprazole 0.3 mg/kg IP alone): 31%
Effects on CAR activity endpoints (male C57BL/6J mice; aripiprazole 3 mg/kg IP, FIG. 18, N=15): robust effects on CAR activity endpoints
Escape failures (male C57BL/6J mice; aripiprazole 0.1, 0.3 mg/kg with or without xanomeline 1 mg/kg): No dose of aripiprazole or combination dose with xanomeline resulted in escape failures
Disruption of CAR performance (dose response) (male C57BL/6J mice; aripiprazole 0.3, 1, 3 and 10 mg/kg, data not shown): effective at disrupting CAR performance in a dose-related manner
ED50 in CAR (male C57BL/6J mice; aripiprazole dose response study, Example 2 formulation): ~0.3 mg/kg

Compound: C[N+]1(C)[C@@H]2C[C@@H](OC(=O)[C@H](CO)c3ccccc3)C[C@H]1[C@@H]1O[C@@H]12 [N-methyl-scopolamine, N-methylscopolamine]
Blockade of the activity of xanomeline in CAR (Adult male C57BL/6J mice; 100-fold higher dose of N-methyl-scopolamine): failed to block the activity of xanomeline
Blockade of xanomeline's effects in CAR by muscarinic antagonist (Adult male C57BL/6J mice): had no effect

Compound: Cc1nc2n(c(=O)c1CCN1CCC(c3noc4cc(F)ccc34)CC1)CCCC2 [Risperidone, risperidone]
Effect on conditioned avoidance responding (dose-response, FIG. 1) (Adult male C57BL/6J mice): dose-dependently reduced conditioned avoidance responding
Average avoidance response percentages, R alone (Adult male C57BL/6J mice; risperidone 0.03 mg/kg alone): 5%
Average avoidance response percentages, R alone (Adult male C57BL/6J mice; risperidone 0.1 mg/kg alone): 26%
Average avoidance response percentages, R alone (Adult male C57BL/6J mice; risperidone 0.3 mg/kg alone): 85%
Avoidance responding versus vehicle-vehicle control, drug alone (Adult male C57BL/6J mice): did not significantly differ from vehicle-vehicle control conditions
Activity alone against MK-801 stimulated activity ([1]; risperidone 0.001 mg/kg alone): Inactive

Xanomeline plasma exposure across the increasing doses of risperidone ([2]; co-dosed with risperidone): no significant increase
Brain level of the named substance ([2]; treatment: MK-801 0.3 + risperidone 0.001 + xanomeline 1 mg/kg): 143.4 ± 4.8 ng/g
Brain level of the named substance ([2]; treatment: MK-801 0.3 + risperidone 0.003 + xanomeline 1 mg/kg): 154.6 ± 9.3 ng/g
Brain level of the named substance ([2]; treatment: MK-801 0.3 + risperidone 0.01 + xanomeline 1 mg/kg, * p<0.05 vs xanomeline alone): 184.9 ± 15.5* ng/g
Brain level of the named substance ([2]; treatment: MK-801 0.3 + xanomeline 1 mg/kg): 126.0 ± 6.6 ng/g
Compound: CCCCCCOc1nsnc1C1=CCCN(C)C1 [Xanomeline, xanomeline]
Effect on conditioned avoidance responding (dose-response, FIG. 1) (Adult male C57BL/6J mice): dose-dependently reduced conditioned avoidance responding
Average avoidance response percentages, X alone (Adult male C57BL/6J mice; xanomeline 1 mg/kg alone, aripiprazole combination study (co-formulation, single SC injection), N=16): 5%
Average avoidance response percentages, X alone (Adult male C57BL/6J mice; xanomeline 1 mg/kg alone, risperidone combination study, N=17): 7%
Average avoidance response percentages, X alone (Adult male C57BL/6J mice; xanomeline 3 mg/kg alone, aripiprazole combination study): 20%
Activity alone against MK-801 stimulated activity ([1]; xanomeline 1 mg/kg alone): Inactive
Activity in the CAR assay (percentage avoidance responses and latency to respond) (male C57BL/6J mice; 1 mg/kg dose alone): inactive in the CAR assay
Average avoidance response percentages, X alone (male C57BL/6J mice; xanomeline 1 mg/kg SC alone, Example 2, N=16): 6%

Compound: CN1[C@@H]2C[C@@H](OC(=O)[C@H](CO)c3ccccc3)C[C@H]1[C@@H]1O[C@@H]12 [scopolamine]
Blockade of the activity of xanomeline in CAR (Adult male C57BL/6J mice; SCOP 0.03 mg/kg): partially blocks
Blockade of the activity of xanomeline in CAR (Adult male C57BL/6J mice; SCOP 0.1 mg/kg): fully
Activity alone in CAR (Adult male C57BL/6J mice; SCOP 0.3 mg/kg): has no activity alone in CAR
Blockade of xanomeline's effects in CAR by muscarinic antagonist (Adult male C57BL/6J mice): dose-dependently blocked xanomeline's effects
Reversal of xanomeline activity in CAR (Adult male C57BL/6J mice; scopolamine 0.3 mg/kg): fully reversed xanomeline activity
Effect on risperidone's antipsychotic-like effect in CAR (Adult male C57BL/6J mice; scopolamine 0.3 mg/kg, FIG. 12, N=16): failed to attenuate
Effect of scopolamine on the activity of aripiprazole in CAR (male C57BL/6J mice; 0.3 mg/kg scopolamine SC 15 minutes before 3.0 mg/kg aripiprazole): slight, but statistically significant effect in reducing the activity of aripiprazole
